We go through 2 molecules from US5206260A, “Hexahydropyrrolo[2,3-b]indole derivatives” (priority 1991, dated 1993).

The structures appear in SMILES notation.

Data set [1] is described as follows: Metabolites of heptylphysostigmine (dog urine after oral dosing; canine liver microsomes). The class given is in vivo. Particulars: mammalian metabolites. As for the experimental part: The foregoing metabolites were originally isolated from dog urine following oral dosing with trimethyl-1,3a,8-hexahydro-1,2,3,3a,8,8a-pyrrol-[2,3-b]indole-5(3aS,8aR)heptylcarbamate at dosage levels of 1 mg/kg/day. Some of these compounds were also isolated from an incubation mixture of canine liver microsomes and trimethyl-1,3a,8-hexahydro-1,2,3,3a,8,8a-pyrrol[2,3-b]indole-5(3aS,8aR)-heptylcarbamate at a concentration of 10 μM in the presence of MgCl2 and NADPH in a buffer of approximately neutral pH at approximately 30°-40° C. The compounds were isolated from the biological matrix by selective solid phase or solvent extraction and purified by liquid chromatography (LC) using different mobile phase conditions. The procedures and the results of these experiments are noted in Examples 1-3.
Incubation of heptylphysostigmine with dog liver microsomes or 9,000×g supernatant fractions was performed to generate metabolites. The incubation mixture contained 100 μmoles of potassium phosphate, pH 7.4, 3 μmoles of MgCl2, 0.5 μmole of NADPH, 1 mg microsomal or 4 mg S9 protein and 10 nmols of ^3 H-heptylphysostigmine in a final volume of 1.0 ml. The incubations were carried out at 37° C. and 120 rpm for 10, 30 or 60 minutes. At the end of the incubation period, metabolites were extracted with a 2:1 mixture of ethyl acetate and acetone. […]

The conditions of data set [2]: background statement, cited from earlier work.
For data set [3] the following is noted: Somani et al., 1989; cited from earlier work.

In the case of `CCCCCCCNC(=O)Oc1ccc2c(c1)[C@]1(C)CCN(C)[C@@H]1N2C` [heptylphysostigmine, trimethyl-1,3a,8-hexahydro-1,2,3,3a,8,8a-pyrrol[2,3-b]indole-5(3aS,8aR) heptylcarbamate], in data set [1], the metabolites discovered result was “eseroline and eseroline glucuronide were also discovered among the mammalian metabolites”.
As to `CNC(=O)Oc1ccc2c(c1)[C@]1(C)CCN(C)[C@@H]1N2C` [physostigmine, trimethyl-1,3a,8-hexahydro-1,2,3,3a,8,8a-pyrrol[2,3-b]indole-5(3aS,8aR)methylcarbamate], the half-life of effect entry in data set [2] is recorded as “short half-life of effect”. In data set [2] (particularly towards the digestive system), the side-effects result is “severe dose-limiting side-effects”. In data set [3], the metabolites reported entry was “metabolized to eseroline and at least three other unknown metabolites”.
